Drawing on PubChem BioAssay (NCI), this text covers TGI for seven molecules.

Among the test systems are A498 renal; COLO 205 colon; HOP-92 NSCLC; OVCAR-3 ovarian; OVCAR-4 ovarian; SF-295 CNS; SF-539 CNS; SN12C renal; SNB-19 CNS; U251 CNS.
What all share (test): DTP human tumour cell line panel, 48 h

Molecules are shown by their SMILES.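 Exposure lasted 48 hours, with cells grown in 96-well plates and compounds tested at five concentrations. TGI marks complete inhibition of growth.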 A value given as a limit tells only on which side of the number the result lay.

For the molecule `BrCC[P+](c1ccccc1)(c1ccccc1)c1ccccc1`, the TGI (in general, the concentration giving total growth inhibition) in the test on A498 renal was 41.3 µM; in the test on COLO 205 colon, 17.6 µM; in the test on HOP-92 NSCLC, 13.1 µM; with OVCAR-3 ovarian it was 11.7 µM; in the test on OVCAR-4 ovarian, 23.1 µM; in the test on SF-295 CNS it was more than 100 µM. Moreover, the TGI was 35.3 µM in the test with SF-539 CNS, 8.39 µM with SN12C renal, 62.1 µM in the test with SNB-19 CNS and 13.2 µM in the test on U251 CNS.
For `CSc1nc2c(ncn2C2OCC(O)C(O)C2O)c(=O)[nH]1` (stereo not given), the concentration for total growth inhibition (TGI) in the test on A498 renal, in the test on COLO 205 colon, in the test with HOP-92 NSCLC, with OVCAR-3 ovarian, in the test on OVCAR-4 ovarian and with SF-295 CNS was more than 100 µM in each case. The TGI with SF-539 CNS, with SN12C renal, in the test with SNB-19 CNS and in the test with U251 CNS was more than 100 µM each time.
Take `c1ccc(COc2ncccc2C2SCCCS2)cc1`: the concentration for total growth inhibition (TGI) in the test with A498 renal, in the test on COLO 205 colon, in the test on HOP-92 NSCLC, in the test on OVCAR-3 ovarian, in the test with OVCAR-4 ovarian and in the test on SF-295 CNS was more than 100 µM in each case. Further, the TGI in the test with SF-539 CNS, in the test on SN12C renal, in the test with SNB-19 CNS and in the test with U251 CNS was more than 100 µM each time.
Take `CC(=O)Oc1ccc2c(c1)c1c(OC(C)=O)c3ccccc3c(OC(C)=O)c1n2Cc1cccc(C)c1`: the concentration for total growth inhibition (TGI) was 70.6 µM in the test on A498 renal; more than 100 µM in the test with COLO 205 colon; 33.5 µM in the test with HOP-92 NSCLC; 72.9 µM in the test with OVCAR-3 ovarian; more than 100 µM with OVCAR-4 ovarian; 72.3 µM in the test on SF-295 CNS. Further, the total growth inhibition concentration (TGI) in the test on SF-539 CNS is 79.3 µM; with SN12C renal it was more than 100 µM; in the test on SNB-19 CNS, more than 100 µM; with U251 CNS, more than 100 µM.
In the case of `CN(Cc1nc2c(N)nc(N)nc2nc1N)c1ccc(C(=O)NC(CCC(=O)O)C(=O)O)cc1` (stereo not given), the concentration for total growth inhibition (TGI) in the test on A498 renal, in the test on COLO 205 colon, in the test on HOP-92 NSCLC, with OVCAR-3 ovarian, in the test with OVCAR-4 ovarian and in the test with SF-295 CNS was more than 100 µM throughout. Besides, the TGI with SF-539 CNS, in the test on SN12C renal, with SNB-19 CNS and in the test on U251 CNS was more than 100 µM throughout.
On to `COc1cc(O)c2c(c1)C(O)C(O)CC1OC1C(=O)/C=C/CC(C)OC2=O` (stereo not given), for which the TGI in the test with A498 renal is 27.3 µM; in the test with COLO 205 colon, 16.1 µM; in the test on HOP-92 NSCLC, 2.72 µM; with OVCAR-3 ovarian, 16.7 µM; in the test on OVCAR-4 ovarian, more than 52.9 µM; with SF-295 CNS, 46.6 µM. The TGI amounted to 17.9 µM in the test with SF-539 CNS, 11.8 µM in the test with SN12C renal, 58.2 µM with SNB-19 CNS and 25 µM in the test on U251 CNS.
For `Cc1cc(S(=O)(=O)NC(=NCC(=O)NN)NN)c(S)cc1Cl`, the TGI with A498 renal, with COLO 205 colon, in the test on HOP-92 NSCLC, in the test with OVCAR-3 ovarian, in the test with OVCAR-4 ovarian and with SF-295 CNS was more than 10 µM each time. The TGI in the test on SF-539 CNS, in the test on SN12C renal, with SNB-19 CNS and in the test with U251 CNS was more than 10 µM throughout.
